The values below come from patent publication US12139492B2 (Endotarget Inc., priority 2021, dated 2024).

The subject of assay [1] is Mino cells. Nature of the assay: Antiproliferative effect, MTS cell viability assay, Mino cells. In kind it is cell-based. As to conditions: Homo sapiens, MINO, Mino mantle cell lymphoma cells; read-out: IC50 (anti-proliferation) Mino cells. A digest of the protocol: (§1)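 Cells were exposed to compound at 0, 0.001, 0.01, 0.1, 1 and 10 μM for 72 h. Viability was then measured by MTS assay, reading formazan produced by metabolically active cells as absorbance at 490 nm.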
Background: Formazan colour is commonly taken as a measure of viable cells.

Assay [2] relates to JeKo-1 cells. Description: Antiproliferative effect, MTS cell viability assay, JeKo-1 cells. It counts as cell-based. Particulars: Homo sapiens; JeKo-1 mantle cell lymphoma cells; read-out: IC50 (anti-proliferation) JeKO-1 cells. A digest of the protocol:
as §1

The target of assay [3] is T1, BTK (Homo sapiens, UniProt Q06187). Description: BTK degradation, DC50 and Dmax of Table 1 (cell line not given). It counts as cell-based. Further details: endogenous in cells. Particulars: for DC50: concentration giving 50% reduction of BTK expression level.
Assay [4] concerns the target T1, BTK. Description: Degradation of BTK protein in Namalwa cells (Western blot; DC50, Dmax). As to conditions: for DC50: cell line not given. In general terms: In western blotting, separated proteins are transferred to a membrane and probed.
Setting [5] is: read-out: DC50 (BTK degradation), concentration giving 50% reduction of BTK expression level.
Where [6] appears, read: read-out: Dmax (BTK degradation).

T1 sequence (Q06187 whole entry): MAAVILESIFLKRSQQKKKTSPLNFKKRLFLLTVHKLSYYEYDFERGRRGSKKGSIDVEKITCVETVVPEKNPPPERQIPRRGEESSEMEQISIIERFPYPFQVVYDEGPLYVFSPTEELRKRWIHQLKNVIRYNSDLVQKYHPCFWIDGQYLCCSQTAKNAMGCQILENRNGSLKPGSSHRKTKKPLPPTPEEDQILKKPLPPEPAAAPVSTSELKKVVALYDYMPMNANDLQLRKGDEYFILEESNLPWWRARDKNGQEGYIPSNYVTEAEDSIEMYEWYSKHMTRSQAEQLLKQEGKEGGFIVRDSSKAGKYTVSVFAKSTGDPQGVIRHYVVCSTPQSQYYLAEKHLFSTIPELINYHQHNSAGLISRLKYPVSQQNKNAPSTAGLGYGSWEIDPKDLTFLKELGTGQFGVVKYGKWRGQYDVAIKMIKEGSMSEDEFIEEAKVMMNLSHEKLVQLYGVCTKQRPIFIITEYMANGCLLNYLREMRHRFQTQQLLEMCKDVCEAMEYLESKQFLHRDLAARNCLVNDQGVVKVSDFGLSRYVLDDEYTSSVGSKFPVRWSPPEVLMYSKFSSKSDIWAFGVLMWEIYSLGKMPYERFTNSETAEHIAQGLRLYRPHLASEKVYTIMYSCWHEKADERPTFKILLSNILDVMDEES

As usually defined, the Dmax is the largest share of the target that was removed. The DC50 is the midpoint of the concentration-degradation curve. Consider `Nc1ncnc2c1c(-c1ccc(Oc3ccccc3)cc1)nn2[C@@H]1CCCN(C2CCN(C(=O)N3CCC(c4ccc5c(c4)CN(C4CCC(=O)NC4=O)C5=O)CC3)CC2)C1` (stereo partly drawn) [Compound 158, 3-(5-(1-((R)-3-(4-amino-3-(4-phenoxyphenyl)-1H-pyrazolo[3,4-d]pyrimidin-1-yl)-[1,4′-bipiperidine]-1′-carbonyl)piperidin-4-yl)-1-oxoisoindolin-2-yl)piperidine-2,6-dione], for which, in assay [1], the IC50 is more than 10 µM. The IC50 in assay [2] is more than 10 µM. In assay [3], this compound yielded a Dmax of more than 50% and a DC50 of more than 0.05 µM.

With `Nc1ncnc2c1c(-c1ccc(Oc3ccccc3)cc1)nn2[C@@H]1CCCN(CC2CCN(CC3CCN(c4ccc5c(c4)C(=O)N(C4CCC(=O)NC4=O)C5=O)CC3)CC2)C1` (stereo partly drawn) [Compound 129, 5-(4-((4-(((R)-3-(4-amino-3-(4-phenoxyphenyl)-1H-pyrazolo[3,4-d]pyrimidin-1-yl)piperidin-1-yl)methyl)piperidin-1-yl)methyl)piperidin-1-yl)-2-(2,6-dioxopiperidin-3-yl)isoindoline-1,3-dione], in assay [1], the IC50 was more than 10 µM. For the same compound, the IC50 in assay [2] is more than 10 µM. In assay [3], the maximal degradation (Dmax) is more than 75% and the DC50 lay within 0.01 to 0.05 µM.

As for `Nc1ncnc2c1c(-c1ccc(Oc3ccccc3)cc1)nn2[C@@H]1CCCN(C2CCN(C(=O)N3CCC(c4ccc5c(c4)C(=O)N(C4CCC(=O)NC4=O)C5=O)CC3)CC2)C1` (stereo partly drawn) [Compound 157, 5-(1-((R)-3-(4-amino-3-(4-phenoxyphenyl)-1H-pyrazolo[3,4-d]pyrimidin-1-yl)-[1,4′-bipiperidine]-1′-carbonyl)piperidin-4-yl)-2-(2,6-dioxopiperidin-3-yl)isoindoline-1,3-dione], the IC50 in assay [1] and in assay [2] was more than 10 µM throughout. Besides, in assay [3], the Dmax was more than 50%. The same compound had a DC50 in assay [3] of more than 0.05 µM.

For the compound `Nc1ncnc2c1c(-c1ccc(Oc3ccccc3)cc1)nn2C1CCCN(CCOCCN2CCC(c3ccc4c(c3)C(=O)N(C3CCC(=O)NC3=O)C4=O)CC2)C1` (centres unmarked) [Compound 15, 5-(1-(2-(2-(3-(4-amino-3-(4-phenoxyphenyl)-1H-pyrazolo[3,4-d]pyrimidin-1-yl)piperidin-1-yl)ethoxy)ethyl)piperidin-4-yl)-2-(2,6-dioxopiperidin-3-yl)isoindoline-1,3-dione], the IC50 in assay [1] is 1 to 10 µM. For the same compound, the IC50 in assay [2] was in the range of 1 to 10 µM. In assay [3], this compound had a Dmax of more than 75% and a DC50 of 0.01 to 0.05 µM.

Turning to `Nc1ncnc2c1c(-c1ccc(Oc3ccccc3)cc1)nn2[C@@H]1CCCN(C2CCN(CCN3CCN(c4ccc5c(c4)CN(C4CCC(=O)NC4=O)C5=O)CC3)CC2)C1` (stereo partly drawn) [Compound 148, 3-(5-(4-(2-((R)-3-(4-amino-3-(4-phenoxyphenyl)-1H-pyrazolo[3,4-d]pyrimidin-1-yl)-[1,4′-bipiperidin]-1′-yl)ethyl)piperazin-1-yl)-1-oxoisoindolin-2-yl)piperidine-2,6-dione], the IC50 in assay [1] is 1 to 10 µM; in assay [2] it was more than 10 µM. For the same compound, the Dmax in assay [3] was more than 75%. For the same compound, in assay [3], the DC50 is 0.01 to 0.05 µM.

For the compound `Nc1ncnc2c1c(-c1ccc(Oc3ccccc3)cc1)nn2C1CCN(CC2CCN(C(=O)N3CCC(CCN4CCN(c5ccc6c(c5)C(=O)N(C5CCC(=O)NC5=O)C6=O)CC4)CC3)CC2)CC1` (centres unmarked) [Compound 43, 5-(4-(2-(1-(4-((4-(4-amino-3-(4-phenoxyphenyl)-1H-pyrazolo[3,4-d]pyrimidin-1-yl)piperidin-1-yl)methyl)piperidine-1-carbonyl)piperidin-4-yl)ethyl)piperazin-1-yl)-2-(2,6-dioxopiperidin-3-yl)isoindoline-1,3-dione], the IC50 in assay [1] and in assay [2] was 1 to 10 µM in each case. This compound also came in with a Dmax in assay [3] of more than 90%.

Take `Nc1ncnc2c1c(-c1ccc(Oc3ccccc3)cc1)nn2C1CCN(CCOCCN2CCC(c3ccc4c(c3)CN(C3CCC(=O)NC3=O)C4=O)CC2)CC1` (centres unmarked) [Compound 12, 3-(5-(1-(2-(2-(4-(4-amino-3-(4-phenoxyphenyl)-1H-pyrazolo[3,4-d]pyrimidin-1-yl)piperidin-1-yl)ethoxy)ethyl)piperidin-4-yl)-1-oxoisoindolin-2-yl)piperidine-2,6-dione]: the IC50 in assay [1] and in assay [2] was less than 1 µM in each case. This compound also came in with a Dmax in assay [3] of more than 90%. This compound registered a DC50 in assay [3] of 0.01 to 0.05 µM.

For the compound `Nc1ncnc2c1c(-c1ccc(Oc3ccccc3)cc1)nn2C1CCN(CCOCCOCCC2CCN(c3ccc4c(c3)CN(C3CCC(=O)NC3=O)C4=O)CC2)CC1` (centres unmarked) [Compound 18, 3-(5-(4-(2-(2-(2-(4-(4-amino-3-(4-phenoxyphenyl)-1H-pyrazolo[3,4-d]pyrimidin-1-yl)piperidin-1-yl)ethoxy)ethoxy)ethyl)piperidin-1-yl)-1-oxoisoindolin-2-yl)piperidine-2,6-dione], the IC50 in assay [1] is 1 to 10 µM; in assay [2], less than 1 µM. Moreover, the Dmax in assay [3] was more than 90%. Also, the DC50 in assay [3] is less than 0.01 µM.

Take `Nc1ncnc2c1c(-c1ccc(Oc3ccccc3)cc1)nn2C1CCN(CCN2CCC(CC3CCN(c4ccc(NC5CCC(=O)NC5=O)cc4)CC3)C2)CC1` (centres unmarked) [Compound 564, 3-((4-(4-((1-(2-(4-(4-amino-3-(4-phenoxyphenyl)-1H-pyrazolo[3,4-d]pyrimidin-1-yl)piperidin-1-yl)ethyl)pyrrolidin-3-yl)methyl)piperidin-1-yl)phenyl)amino)piperidine-2,6-dione]: the IC50 in assay [1] and in assay [2] was less than 1 µM each time. In addition, in assay [4] (setting [5]), the DC50 was in the range of 0.01 to 0.05 µM. In addition, in assay [4] (setting [6]), the Dmax is more than 90%.

With `Nc1ncnc2c1c(-c1ccc(Oc3ccccc3)cc1)nn2[C@@H]1CCCN(C2CCN(C(=O)NC3CCC(=O)NC3=O)CC2)C1` (stereo partly drawn) [Compound 517, (3R)-3-(4-amino-3-(4-phenoxyphenyl)-1H-pyrazolo[3,4-d]pyrimidin-1-yl)-N-(2,6-dioxopiperidin-3-yl)-[1,4′-bipiperidine]-1′-carboxamide], the IC50 in assay [1] and in assay [2] was 1 to 10 µM in each case. For the same compound, the DC50 in assay [4] (setting [5]) is less than 0.01 µM. For the same compound, in assay [4] (setting [6]), the Dmax is more than 75%.

With `Nc1ncnc2c1c(-c1ccc(Oc3ccccc3)cc1)nn2C1CCN(C2CCN(C(=O)N3CCN(CCCC4CCN(c5ccc6c(c5)C(=O)N(C5CCC(=O)NC5=O)C6=O)CC4)CC3)CC2)CC1` (centres unmarked) [Compound 259, 5-(4-(3-(4-(4-(4-amino-3-(4-phenoxyphenyl)-1H-pyrazolo[3,4-d]pyrimidin-1-yl)-[1,4′-bipiperidine]-1′-carbonyl)piperazin-1-yl)propyl)piperidin-1-yl)-2-(2,6-dioxopiperidin-3-yl)isoindoline-1,3-dione], the IC50 is more than 10 µM in assay [1] and 1 to 10 µM in assay [2]. The maximal degradation (Dmax) in assay [4] is more than 75%. This compound also returned a DC50 in assay [4] (BTK degradation) of more than 0.05 µM.

As to `NC(=O)c1c(-c2ccc(Oc3ccccc3)cc2)nn2c1NCCC2C1CCN(CC2CCN(C(=O)N3CCC(CC4CCN(c5ccc6c(c5)CN(C5CCC(=O)NC5=O)C6=O)CC4)CC3)CC2)CC1` (centres unmarked) [Compound 374, 7-(1-((1-(4-((1-(2-(2,6-dioxopiperidin-3-yl)-1-oxoisoindolin-5-yl)piperidin-4-yl)methyl)piperidine-1-carbonyl)piperidin-4-yl)methyl)piperidin-4-yl)-2-(4-phenoxyphenyl)-4,5,6,7-tetrahydropyrazolo[1,5-a]pyrimidine-3-carboxamide], the IC50 was 1 to 10 µM in assay [1] and more than 10 µM in assay [2]. For the same compound, the Dmax in assay [4] was more than 75%. The same compound came in with a DC50 in assay [4] (BTK degradation) of 0.01 to 0.05 µM.
